Measurements published in article PMC9861623, “New Ferulic Acid and Amino Acid Derivatives with Increased Cosmeceutical and Pharmaceutical Potential” (Pharmaceutics, 2022).
Where “and” joins values, the source holds several entries; their conditions need not be identical. Identical values can stand only once.

Key:
[1] = DPPH radical scavenging assay of the compounds
Protocol: (§1) To determine the antioxidant capacity of ferulic acid and its derivatives the DPPH method was used. The analyses were performed using the Hitachi UV-Vis Spectrophotometer U-5100 at the wavelength λ = 517 nm. Trolox (6-hydroxy-2,5,7,8-tetramethylchroman-2-carboxylic acid) was used as a reference substance. The antioxidant activity was expressed as %RSA and mmol Trolox dm^−3. […]. Blank samples without antioxidant were prepared in the same way. The tubes were wrapped in aluminum foil and were sealed with a stopper and then incubated for 10 min at room temperature. After this time, spectrophotometric measurements were carried out in triplicate. For determination of antioxidant activity of the acceptor fluid after 24 h of permeation and solutions obtained by extraction of the skin obtained after penetration study, 0.15 mL samples of each solutions were separately added to 2.85 mL of DPPH solution and spectrophotometric measurements were performed. The antioxidant activity was expressed as mmol Trolox·dm^−3.

[2] = Accumulation in the skin after 24 h permeation; format: in vitro ADME, pig; conditions: 24 h penetration, ethanol solution
Protocol: (§2) The accumulation of the FA and its derivatives in the skin after 24 h permeation process through the skin were determined using a modification of the methods described by Janus et al. and Taokaew et al.. After 24 h of permeation experiment, the skin samples were removed from the Franz diffusion cell, washed three times with 0.5% sodium lauryl sulfate solution and dried at room temperature. Next, after cutting out the diffusion area of each skin sample, the samples were immersed in 2 mL of absolute ethanol and continuously stirred at 300 rpm at room temperature for 24 h. The samples were then centrifuged, and clear solutions were collected and analyzed by HPLC method for the determination of FA and its derivatives. The accumulation of the active substance in the skin was calculated by dividing the amount of the drug remaining in the skin by a mass of skin sample and was expressed in mass active substance per mass of the skin (µg g^−1). For solution obtained after skin extraction, the antioxidant activity and total polyphenol content were also determined (as described in Section 2.5.1 and Section 2.5.2).

[3] = DPPH antioxidant activity of solution obtained after skin extraction; design: species or system pig; conditions: after 24 h penetration
Protocol: as §1, §2

[4] = DPPH antioxidant activity of acceptor fluid after 24 h permeation; design: species or system pig; conditions: after 24 h penetration
Protocol: as §1
(§3) The permeation experiments were performed using Franz diffusion cells (Phoenix DB-6, ABL&E-JASCO, Wien, Austria). The diffusion was 1 cm^2. The volume of the acceptor chamber was 8 mL. This chamber was filled with PBS solution (pH 7.4). During experiment, a constant temperature of 37.0 ± 0.5 °C was maintained in each diffusion unit. The acceptor chamber content was stirred with a magnetic stirring bar at the same speed for all cells. The prepared pig skin was mounted on each donor chamber. As previously mentioned, only undamaged skin pieces with an even thickness were chosen for experiments. Thereafter, the hydrogel or emulsion vehicle/preparation in 1 g portion was put on the skin in donor cells. For comparison, 1 mL ethanolic solution containing either FA or its derivatives was applied to another donor chamber. The amount of the FA and its derivatives applied on the skin expressed as the mass of ferulic acid was 0.01 g and was the same for each carrier. The penetration experiments were carried out for 24 h. The samples were collected after 1 h, 2 h, 3 h, 4 h, 5 h, 6 h, 8 h, and 24 h. Aliquots of the acceptor fluid (0.5 mL) were withdrawn and to each acceptor chamber the same volume of fresh PBS solution was added. The FA and its derivatives’ concentrations in the acceptor fluid were measured by HPLC method (Section 2.6.2). The cumulative mass (µg·cm^−2) and penetration rate (µg·cm^−2·h^−1) were calculated. The acceptor fluid collected after 24 h of permeation was also measured for antioxidant activity and total polyphenol content (as described in Section 2.5.1 and Section 2.5.2).

[5] = n-octanol/water partition coefficient by shake flask method; format: physicochemical
Protocol: The n-octanol/water partition coefficient (log PO/W) was determined for ferulic acid and its derivatives by shake flask method. n-Octanol saturated with water and water saturated with n-octanol were prepared at 25 °C, 24 h prior to their use in the experiments. Then, a sample of 10 mg of compound was weighed with the accuracy of 0.01 mg in a 16 cm^3 screwed vial and dissolved in 5 cm^3 of n-octanol. Next, 5 cm^3 of water was added to the vial. The resulting two-phase mixture was kept in water bath shaker at 25 °C for 2 h and was strongly shaken to reach the partition equilibrium of the compound between the phases. Then the mixture was left unshaken for 30 min and 1.0 cm^3 of water phase was carefully taken out to centrifuge tube. The sample was next centrifuged for 10 min at 7500 rpm at 25 °C to ensure the most precise phase separation. The concentration of compound in water phase was then determined using HPLC method. The partition coefficient, log PO/W was calculated according to the formula: logPO/W=logC0V0−CWVW/CWVW where: C0—initial concentration of the compound in n-octanol, calculated based on the weighed mass of compound, mg·cm^−^3; V0—volume of n-octanol, cm^3; CW—concentration of the compound in water after partition equilibrium, mg·cm^−^3; VW—volume of water, cm^3.

[6] = Thermogravimetric (TG) analysis, thermal stability; format: physicochemical; conditions: air atmosphere, 10 °C·min^−1
Protocol: Samples of 2–5 mg, loaded in aluminium crucibles, were heated from 30 °C to 600 °C at the heating rate of 10 °C·min^−1, in the air atmosphere (25 mL·min^−1) with nitrogen flow (10 mL·min^−1) as the purge gas.

[7] = system: Murine fibroblasts (L929); assay: Cytotoxicity, PrestoBlue resazurin-based cell viability assay; conditions: 2.0 mM, 24 h, PrestoBlue, normalized to control
Protocol: The cell biocompatibility was evaluated using a PrestoBlue HS Cell Viability Reagent (Thermo Fisher Scientific, MA USA) based on the reduction of the resazurin to highly fluorescent resorufin, of which the amount is directly correlated to the number of living cells. […] The cells without tested compounds were used as control. The interaction of tested compounds without cells and Prestoblue Reagent (blank wells) was excluded. After 24 h of treatment, optical microscopy imaging of L929 cells was performed using Smart Fluorescent Cell Analyzer Microscope JuLi (Seoul, Korea). Next, the PrestoBlue reagent (10 μL) was added to each well and incubated for 30 min. The fluorescence was measured using a spectrophotometric microplate reader (Infinite 200 Pro, Tecan, Männedorf, Switzerland) at ex/em: 560/594 nm. The readings were acquired from at least three independent experiments (each conducted in triplicate) and normalized to the control (100% viability).

[8] = Skin permeation in Franz diffusion cells; format: in vitro ADME, pig; conditions: 24 h, 10 mg as FA applied
Protocol: In the experiment, abdominal porcine skin coming from the local slaughterhouse was used. Pig skin was chosen because of its similar permeability to human skin [34, 35]. The fresh abdominal porcine skin was washed several times in PBS buffer pH 7.4. The skin of 0.5 mm in thickness was dermatomed and divided into 2 cm × 2 cm pieces. The skin samples were wrapped in aluminum foil and stored at −20 °C until use, not longer than 3 months. According to Badran et al., this storage time at this temperature is safe to keep skin barrier properties. Immediately before the experiment, the skin samples were slowly thawed at room temperature for 30 min and then were hydrated by PBS pH 7.4 [37, 38, 39, 40]. Such prepared skin was mounted on donor chamber. Only the undamaged skin pieces with an even thickness were chosen for experiments. The integrity of the skin was checked by impedance measurement using an LCRmeter4080 (Conrad Electronic, Hirschau, Germany), operated in parallel mode at an alternating frequency of 120 Hz (error at kΩ values < 0.5%). The tips of measuring probes were immersed in the donor and acceptor chamber containing PBS (pH 7.4), as described previously. Only skin samples of impedance > 3 kΩ were applied as such impedance is similar to the electrical resistance of human skin [42].
The concentration of FA and its derivatives in the acceptor fluid and in the fluid obtained by skin extraction after permeation experiment was assessed using liquid chromatography system (Knauer, Berlin, Germany) consisting of a model 2600 UV detector, Smartline model 1050 pump and Smartline model 3950 autosampler. HPLC was controlled by ClarityChrom 2009 software. The detector was operated at 280 nm. The separations were performed on 125 mm × 4 mm ID chromatographic column filled with Hyperisil ODS (C18), particle size 5 µm, in isocratic mode. The mobile phase consisted of acetonitrile, 1% acetic acid, and MeOH (47/47/6 v/v/v) and was pumped at flow rate of 1 mL min^−1. The column temperature was set at 25 °C, and the injection volume was 20 µL.
as §3

[9] = molar ratio antioxidant:DPPH 0.1, 10 min
[10] = molar ratio antioxidant:DPPH 1.0, 10 min
[11] = molar ratio antioxidant:DPPH 2.0, 10 min

**Q.** Which results are given for `CCCOC(=O)[C@@H]1CCCN1.COc1cc(/C=C/C(=O)O)ccc1O` [PPr[FA], L-proline propyl ester ferulate]?
**A.** Antioxidant activity %RSA [1, 9]: 19.3 ± 0.001 %RSA and 19.3 ± 0.001 a %RSA; Antioxidant activity, Trolox equivalents [1, 9]: 0.115 ± 0.001 mmol Trolox dm^−3 and 0.115 ± 0.001 a mmol Trolox dm^−3; Antioxidant activity %RSA [1, 10]: 79.6 ± 0.001 b %RSA; Antioxidant activity, Trolox equivalents [1, 10]: 0.697 ± 0.001 b mmol Trolox dm^−3; Antioxidant activity %RSA [1, 11]: 87.7 ± 0.001 %RSA and 87.7 ± 0.001 b %RSA; Antioxidant activity, Trolox equivalents [1, 11]: 0.775 ± 0.001 mmol Trolox dm^−3 and 0.775 ± 0.001 b mmol Trolox dm^−3; Accumulation in the skin compared to pure FA [2]: accumulated in a significantly smaller amount compared to pure FA; DPPH antioxidant activity of the solution obtained after skin extraction ([3]; emulsion): 0.198 ± 0.006 a mmol Trolox dm^−3; DPPH antioxidant activity of the solution obtained after skin extraction ([3]; ethanol solution): 0.259 ± 0.007 a mmol Trolox dm^−3; DPPH antioxidant activity of the solution obtained after skin extraction ([3]; hydrogel): 0.351 ± 0.036 ab mmol Trolox dm^−3; DPPH antioxidant activity of the acceptor fluid ([4]; emulsion): 0.061 ± 0.007 mmol Trolox dm^−3 and 0.061 ± 0.007 a mmol Trolox dm^−3; DPPH antioxidant activity of the acceptor fluid ([4]; ethanol solution): 0.094 ± 0.002 a mmol Trolox dm^−3; DPPH antioxidant activity of the acceptor fluid ([4]; hydrogel): 0.075 ± 0.012 mmol Trolox dm^−3 and 0.075 ± 0.012 a mmol Trolox dm^−3; Share of compound partitioned to n-octanol ([5]; from log PO/W): 74%; log PO/W ([5]; n-octanol/water, shake flask, 25 °C): 0.447 ± 0.022; Td onset, the onset of decomposition ([6]; TG): 122.8 °C; Td max, temperature of the fastest mass loss of the sample ([6]; TG/DTG): 148.7 °C; L929 viability [7]: 78.56 ± 2.73%; Cumulative Permeation Mass ([8]; from emulsion): 128.80 ± 19.86 µg FA·cm^−2 and 128.80 ± 19.86 a µg FA·cm^−2; Cumulative Permeation Mass ([8]; from hydrogel): 396.86 ± 42.13 µg FA·cm^−2 and 396.86 ± 42.13 b µg FA·cm^−2; Cumulative Permeation Mass ([8]; from solution in 70% (v/v) ethanol): 427.00 ± 4.674 µg FA·cm^−2 and 427.00 ± 4.67 b µg FA·cm^−2
